Results taken from PubChem BioAssay (NCI).
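In this assay, cells in 96-well plates receive the compound at five concentrations for 48 hours. Endpoints are linearly interpolated between the surrounding concentrations. TGI: concentration producing complete growth inhibition.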

How the values were obtained:
Experiment in all cases: inhibition of tumour cell growth, NCI panel, 48 h
XF 498 CNS = test system: XF 498 CNS
EKVX NSCLC = test system: EKVX NSCLC
HCT-15 colon = test system: HCT-15 colon
UO-31 renal = test system: UO-31 renal
HCT-116 colon = test system: HCT-116 colon
MALME-3M melanoma = test system: MALME-3M melanoma
SF-539 CNS = test system: SF-539 CNS
M14 melanoma = test system: M14 melanoma
HOP-62 NSCLC = test system: HOP-62 NSCLC
SF-268 CNS = test system: SF-268 CNS
MOLT-4 leukemia = test system: MOLT-4 leukemia
A498 renal = test system: A498 renal
HL-60(TB) leukemia = test system: HL-60(TB) leukemia
UACC-257 melanoma = test system: UACC-257 melanoma
UACC-62 melanoma = test system: UACC-62 melanoma
CAKI-1 renal = test system: CAKI-1 renal
HT29 colon = test system: HT29 colon
SR leukemia = test system: SR leukemia
MDA-N = test system: MDA-N
RXF 393 renal = test system: RXF 393 renal

| SMILES | TGI (XF 498 CNS) | TGI (EKVX NSCLC) | TGI (HCT-15 colon) | TGI (UO-31 renal) | TGI (HCT-116 colon) | TGI (MALME-3M melanoma) | TGI (SF-539 CNS) | TGI (M14 melanoma) | TGI (HOP-62 NSCLC) | TGI (SF-268 CNS) | TGI (MOLT-4 leukemia) | TGI (A498 renal) | TGI (HL-60(TB) leukemia) | TGI (UACC-257 melanoma) | TGI (UACC-62 melanoma) | TGI (CAKI-1 renal) | TGI (HT29 colon) | TGI (SR leukemia) | TGI (MDA-N) | TGI (RXF 393 renal) |
| --- | --- | --- | --- | --- | --- | --- | --- | --- | --- | --- | --- | --- | --- | --- | --- | --- | --- | --- | --- | --- |
| CC(C)N=C(N)NC#N | > 100 µM | > 100 µM | > 100 µM | > 100 µM | > 100 µM | > 100 µM | > 100 µM | > 100 µM | > 100 µM | > 100 µM | > 100 µM | > 100 µM | > 100 µM | > 100 µM | > 100 µM | > 100 µM | > 100 µM | – | – | – |
| COc1cc(-c2cc(=O)c3c(O)c(CC=C(C)C)c(O)cc3o2)ccc1O | – | 32.5 µM | > 50 µM | > 50 µM | > 50 µM | > 50 µM | 47.6 µM | 39.7 µM | > 50 µM | > 50 µM | > 50 µM | > 50 µM | > 50 µM | > 50 µM | > 50 µM | 28 µM | > 50 µM | 41.9 µM | 20.2 µM | > 50 µM |
